Reference: US9023789B2, “Amylin analogs and pharmaceutical compositions thereof” (Novo Nordisk A/S, priority 2012, dated 2015)
Numbered stars: 1 amine (or outer) side, 2 acyl side, 3 side chain; on linkers, the order of the positions; unused ones are H or OH. Bridge positions count the residues as written; N and C are the ends. Side chains are listed from the residue outwards. Peptide text beside a SMILES is read from it. * marks the point of attachment. C20 diacid = O=C(O)CCCCCCCCCCCCCCCCCCC(=O)*; γGlu = O=C(O)[C@H](CCC(=O)[*:2])N[*:1]

Experiments:
[1] = molecular target: T1, rat amylin receptor (rat calcitonin receptor + rat RAMP 3) (Rattus norvegicus, UniProt P32214+Q9JJ73); experiment: ASSAY (VI) binding to the rat amylin receptor; conditions: for IC50: binding to rat amylin receptor, read-out: rAmylin-R bind IC50
T1 construct: expressed in transfected cells; host or cells: BHK tk'ts 13 (transient, FuGENE 6), membranes
T1 sequence (P32214 25-479 isoform P32214-2 limits assumed): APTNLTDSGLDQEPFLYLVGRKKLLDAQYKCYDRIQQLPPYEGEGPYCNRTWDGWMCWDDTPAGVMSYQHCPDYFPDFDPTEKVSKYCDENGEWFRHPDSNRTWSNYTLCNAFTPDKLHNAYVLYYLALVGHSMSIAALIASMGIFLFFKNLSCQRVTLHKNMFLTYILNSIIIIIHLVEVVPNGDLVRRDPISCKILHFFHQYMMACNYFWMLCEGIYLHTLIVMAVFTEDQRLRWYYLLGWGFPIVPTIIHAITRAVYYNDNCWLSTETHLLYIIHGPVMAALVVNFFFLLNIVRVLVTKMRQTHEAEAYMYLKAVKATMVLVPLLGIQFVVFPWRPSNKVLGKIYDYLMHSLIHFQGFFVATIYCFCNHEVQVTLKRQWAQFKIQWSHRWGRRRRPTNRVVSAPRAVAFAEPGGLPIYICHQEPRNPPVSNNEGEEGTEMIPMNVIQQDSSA
T1 sequence (Q9JJ73 23-147 partner): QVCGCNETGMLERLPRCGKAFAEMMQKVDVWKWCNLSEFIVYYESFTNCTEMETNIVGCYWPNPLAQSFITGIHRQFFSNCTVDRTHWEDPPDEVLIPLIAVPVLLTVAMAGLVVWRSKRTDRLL
Procedure, shortened: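 The cell-membrane assay assessed binding at the rat amylin receptor. BHK tk′ts 13 cells were transfected transiently with rat calcitonin receptor, with FuGENE® 6 (Roche) as the transfection reagent, used per the manufacturer's recommendations. Approximately 48 hours after transfection the cells were harvested, and membranes were prepared for measuring binding.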

[2] = system: Male Wistar rats; experiment: ASSAY (XII) effect from single subcutaneous administration on plasma calcium in rats; type: in vivo, rat; conditions: for Plasma calcium red (%) 0-12 h (maximal): single s.c., compared to vehicle; for suppression of plasma calcium level relative to vehicle: single subcutaneous 30 nmol/kg, monitored over 24 hours
Description: Assay (XII)—Effect from Single Subcutaneous Administration of Analogue on Plasma Calcium in Rats
Male Wistar rats (Taconic Europe, ˜250 g at test date) were acclimatized to handling prior to the study. Rats were divided in groups of five and subcutaneously dosed with test compound at time=0. At time T=−15 min; 1 h, 2 h, 4 h, 7 h, 12 h, and 24 h a blood sample was obtained and heparin stabilized plasma was analysed for total calcium (Cobas, Hitachi). Data are illustrated in graphs as mean±SEM.

[3] = system: Male Sprague-Dawley rats; experiment: ASSAY (XI) single subcutaneous administration, food intake monitored for 48 hours in rats; type: in vivo, rat; conditions: for Food intake red (%) 0-24 h / Food intake red (%) 24-48 h: single s.c., compared to vehicle
Text: Assay (XI)—Effect from Single Subcutaneous Administration of Analogue on Plasma Calcium in Rats
Male Sprague-Dawley rats (Taconic Europe, ˜250 g at test date) were acclimatized to reversed day light cycle (lights on from 10 PM to 10 AM) and single housing in online food intake monitoring system (Ellegaard MBRose, Denmark) prior to study start. […] Data are illustrated in graphs as mean±SEM.

[4] = Table 7, rat binding selectivity, rCTR IC50 / rAmylin-R IC50
[5] = Table 7a (preferred compounds), rat binding selectivity, rCTR IC50 / rAmylin-R IC50
[6] = ratio of rCTR bind IC50 to rAmylin-R bind IC50

Row | Structure (SMILES) | IC50 ([1]; Table 7) | Ratio rCT/rAmylin binding [1, 4] | Ratio rCT/rAmylin binding [1, 5] | Ratio rCT/rAmylin binding [1, 6] | Plasma calcium red (%) 0-12 h (maximal) ([2]; 30 nmol/kg) | suppression of plasma calcium level relative to vehicle [2] | Food intake red (%) 0-24 h ([3]; 30 nmol/kg) | Food intake red (%) 24-48 h ([3]; 30 nmol/kg) | food intake monitored over 48 hours ([3]; single subcutaneous administration, 30 nmol/kg, versus vehicle) | Food intake red (%) 0-24 h ([3]; 3 nmol/kg) | Food intake red (%) 24-48 h ([3]; 3 nmol/kg) | Plasma calcium red (%) 0-12 h (maximal) ([2]; 10 nmol/kg)
1 | CC[C@H](C)[C@H](NC(=O)[C@H](C)NC(=O)CNC(=O)[C@H](Cc1ccccc1)NC(=O)[C@H](CC(N)=O)NC(=O)[C@@H]1CCCN1C(=O)[C@H](CO)NC(=O)[C@H](CO)NC(=O)[C@H](Cc1c[nH]cn1)NC(=O)[C@H](CCCNC(=N)N)NC(=O)[C@H](CC(C)C)NC(=O)[C@H](Cc1ccccc1)NC(=O)[C@H](CCC(=O)O)NC(=O)[C@H](C)NC(=O)[C@H](CC(C)C)NC(=O)[C@H](CCCNC(=N)N)NC(=O)[C@H](CCC(N)=O)NC(=O)[C@@H](NC(=O)[C@H](C)NC(=O)[C@@H]1CSSC[C@H](NC(=O)[C@@H](N)CCCCNC(=O)CC[C@H](NC(=O)CCCCCCCCCCCCCCCCCCC(=O)O)C(=O)O)C(=O)N[C@@H](CC(N)=O)C(=O)N[C@@H]([C@@H](C)O)C(=O)N[C@@H](C)C(=O)N[C@@H]([C@@H](C)O)C(=O)N1)[C@@H](C)O)C(=O)N1CCC[C@H]1C(=O)N[C@@H](CO)C(=O)N[C@@H](CO)C(=O)N[C@H](C(=O)N[C@@H](CC(N)=O)C(=O)N[C@H](C(=O)NCC(=O)N1CCC[C@H]1C(=O)N[C@@H](CCCNC(=N)N)C(=O)N[C@H](C(=O)N[C@@H](Cc1ccc(O)cc1)C(N)=O)[C@@H](C)O)C(C)C)[C@@H](C)O [Example 117] (H-K([γGlu-C20 diacid])CNTATCATQRLAEFLRHSSPNFGAIPSSTNVGPRTY-NH2; disulfide 2-7; N-terminus assumed) | 0.339 nM | 45.5 | 45.5 | 45.5 | 9% | None of the example compounds at 30 nmol/kg trigger a notable suppression of the calcium level | 61% | 4% | reduces food intake | – | – | –
2 | CC[C@H](C)[C@H](NC(=O)[C@H](C)NC(=O)CNC(=O)[C@H](Cc1ccccc1)NC(=O)[C@H](CC(N)=O)NC(=O)[C@@H]1CCCN1C(=O)[C@H](CO)NC(=O)[C@H](CO)NC(=O)[C@H](Cc1c[nH]cn1)NC(=O)[C@H](CCCNC(=N)N)NC(=O)[C@H](CC(C)C)NC(=O)[C@H](Cc1ccccc1)NC(=O)[C@H](CCC(=O)O)NC(=O)[C@H](C)NC(=O)[C@H](CC(C)C)NC(=O)[C@H](CCCNC(=N)N)NC(=O)[C@H](CCC(N)=O)NC(=O)[C@@H](NC(=O)[C@H](C)NC(=O)[C@@H]1CSSC[C@H](NC(=O)[C@@H](N)CCCCNC(=O)CC[C@H](NC(=O)CCCCCCCCCCCCCCCCCCC(=O)O)C(=O)O)C(=O)N[C@@H](CC(N)=O)C(=O)N[C@@H]([C@@H](C)O)C(=O)N[C@@H](C)C(=O)N[C@@H]([C@@H](C)O)C(=O)N1)[C@@H](C)O)C(=O)N1CCC[C@H]1C(=O)N[C@@H](CO)C(=O)N[C@@H](CO)C(=O)N[C@H](C(=O)N[C@@H](CC(N)=O)C(=O)N[C@H](C(=O)NCC(=O)N1CCC[C@H]1C(=O)N[C@@H](Cc1c[nH]cn1)C(=O)N[C@H](C(=O)N[C@@H](Cc1ccc(O)cc1)C(N)=O)[C@@H](C)O)C(C)C)[C@@H](C)O [Example 118] (H-K([γGlu-C20 diacid])CNTATCATQRLAEFLRHSSPNFGAIPSSTNVGPHTY-NH2; disulfide 2-7) | 0.104 nM | 52.2 | 52.2 | 52.2 | 26% | – | 77% | 30% | – | 43% | 1% | –
3 | CC[C@H](C)[C@H](NC(=O)[C@H](C)NC(=O)CNC(=O)[C@H](Cc1ccccc1)NC(=O)[C@H](CC(N)=O)NC(=O)[C@@H]1CCCN1C(=O)[C@H](CO)NC(=O)[C@H](CO)NC(=O)[C@H](Cc1c[nH]cn1)NC(=O)[C@H](CCCNC(=N)N)NC(=O)[C@H](CC(C)C)NC(=O)[C@H](Cc1ccccc1)NC(=O)[C@H](CCC(=O)O)NC(=O)[C@H](C)NC(=O)[C@H](CC(C)C)NC(=O)[C@H](CCCNC(=N)N)NC(=O)[C@H](CCC(N)=O)NC(=O)[C@@H](NC(=O)[C@H](C)NC(=O)[C@@H]1CSSC[C@H](NC(=O)[C@@H](N)CCCCNC(=O)CC[C@H](NC(=O)CC[C@H](NC(=O)CCCCCCCCCCCCCCCCCCC(=O)O)C(=O)O)C(=O)O)C(=O)N[C@@H](CC(N)=O)C(=O)N[C@@H]([C@@H](C)O)C(=O)N[C@@H](C)C(=O)N[C@@H]([C@@H](C)O)C(=O)N1)[C@@H](C)O)C(=O)N1CCC[C@H]1C(=O)N[C@@H](CO)C(=O)N[C@@H](CO)C(=O)N[C@H](C(=O)N[C@@H](CC(N)=O)C(=O)N[C@H](C(=O)NCC(=O)N1CCC[C@H]1C(=O)N[C@@H](Cc1c[nH]cn1)C(=O)N[C@H](C(=O)N[C@@H](Cc1ccc(O)cc1)C(N)=O)[C@@H](C)O)C(C)C)[C@@H](C)O [Example 124] (H-K([γGlu-γGlu-C20 diacid])CNTATCATQRLAEFLRHSSPNFGAIPSSTNVGPHTY-NH2; disulfide 2-7 (inferred)) | 0.288 nM | 73.0 | 73.0 | 73.0 | 11% | – | 73% | 38% | – | – | – | 3%
4 | CC[C@H](C)[C@H](NC(=O)[C@H](C)NC(=O)CNC(=O)[C@H](Cc1ccccc1)NC(=O)[C@H](CC(N)=O)NC(=O)[C@@H]1CCCN1C(=O)[C@H](CO)NC(=O)[C@H](CO)NC(=O)[C@H](Cc1c[nH]cn1)NC(=O)[C@H](CCCNC(=N)N)NC(=O)[C@H](CC(C)C)NC(=O)[C@H](Cc1ccccc1)NC(=O)[C@H](CCC(=O)O)NC(=O)[C@H](C)NC(=O)[C@H](CC(C)C)NC(=O)[C@H](CCCNC(=N)N)NC(=O)[C@H](CCC(N)=O)NC(=O)[C@@H](NC(=O)[C@H](C)NC(=O)[C@@H]1CSSC[C@H](NC(=O)[C@@H](N)CCCCNC(=O)CC[C@H](NC(=O)CCCCCCCCCCCCCCCCCCC(=O)O)C(=O)O)C(=O)N[C@@H](CC(N)=O)C(=O)N[C@@H]([C@@H](C)O)C(=O)N[C@@H](C)C(=O)N[C@@H]([C@@H](C)O)C(=O)N1)[C@@H](C)O)C(=O)N1CCC[C@H]1C(=O)N[C@@H](CO)C(=O)N[C@@H](CO)C(=O)N[C@H](C(=O)N[C@@H](CC(N)=O)C(=O)N[C@H](C(=O)NCC(=O)N[C@@H](CO)C(=O)N[C@@H](CCCNC(=N)N)C(=O)N[C@H](C(=O)N[C@@H](Cc1ccc(O)cc1)C(N)=O)[C@@H](C)O)C(C)C)[C@@H](C)O [Example 51] (H-K([γGlu-C20 diacid])CNTATCATQRLAEFLRHSSPNFGAIPSSTNVGSRTY-NH2; disulfide 2-7 (inferred); N-terminus assumed) | 0.523 nM | 118.6 | 118.6 | 118.6 | 10% | None of the example compounds at 30 nmol/kg trigger a notable suppression of the calcium level | 52% | 30% | – | – | – | –
